Non-standard residues stand in square brackets, D forms with d. Residues, ends and D or L forms follow the SMILES beside them. pY = N[C@@H](Cc1ccc(OP(=O)(O)O)cc1)C(=O)O
What was measured:
Type in all cases: binding
[1] = target: T1, STAT4 (Homo sapiens, UniProt Q14765); assay: HTRF assay, STAT4; conditions: STAT4 30 nM, without reducing agent, 1 h
T1 sequence (Q14765 1-748): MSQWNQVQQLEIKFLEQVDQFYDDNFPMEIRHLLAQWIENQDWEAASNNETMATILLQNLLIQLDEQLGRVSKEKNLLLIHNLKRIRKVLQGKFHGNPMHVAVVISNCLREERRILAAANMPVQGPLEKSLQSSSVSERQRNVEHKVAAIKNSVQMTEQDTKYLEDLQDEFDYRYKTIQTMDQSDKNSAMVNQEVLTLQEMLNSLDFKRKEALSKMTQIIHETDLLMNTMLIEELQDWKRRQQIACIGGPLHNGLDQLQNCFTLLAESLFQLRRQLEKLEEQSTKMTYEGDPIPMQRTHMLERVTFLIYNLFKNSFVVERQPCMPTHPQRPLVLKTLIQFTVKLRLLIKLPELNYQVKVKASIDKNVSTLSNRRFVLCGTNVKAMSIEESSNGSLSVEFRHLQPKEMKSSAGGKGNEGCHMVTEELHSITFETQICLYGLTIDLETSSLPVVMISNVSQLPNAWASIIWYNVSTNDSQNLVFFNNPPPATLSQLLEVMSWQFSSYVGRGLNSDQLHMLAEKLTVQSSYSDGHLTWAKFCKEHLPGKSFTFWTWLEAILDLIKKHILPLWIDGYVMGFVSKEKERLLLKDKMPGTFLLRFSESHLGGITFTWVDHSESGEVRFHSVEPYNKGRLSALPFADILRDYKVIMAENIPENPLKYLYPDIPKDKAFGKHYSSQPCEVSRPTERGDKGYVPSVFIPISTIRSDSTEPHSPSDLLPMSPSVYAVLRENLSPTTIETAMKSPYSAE
From the text: (§1) The azo dyes PPADS and iso‐PPADS have a deep red color in aqueous solution. […] In order to exclude this possibility, we established homogeneous time‐resolved fluorescence resonance energy transfer (HTRF) assays to confirm the degree of binding between STAT4, STAT5a, and STAT5b and the respective 5‐carboxyfluorescein‐labeled binding peptides used in the FP assay. In addition, an HTRF assay was established for STAT3, one of the STAT proteins targeted to a lesser extent in FP assays, as a specificity control (Figure 1B,C). The STAT protein constructs each contain a 6x‐His‐tag.^[ [15], [16], [17], [22] ^] A Tb^3+‐cryptate fused to an anti‐6x‐His antibody was chosen as the long‐lived fluorescent donor, while the carboxyfluorescein linked to the respective STAT‐binding peptides served as the acceptor (Figure 2A). Emission was measured with a time delay of 60 μs after excitation, allowing any initial compound fluorescence to decay beforehand. […]
(§2) Screening of chemical libraries comprising approximately 5000 known bioactive compounds in fluorescence polarization-based assays against phosphorylation-dependent protein-protein interaction domains, including STAT proteins, has been described.[1] […]
(§3) Fluorescence polarization assays
(§4) Competitive fluorescence polarization (FP) assays for STAT1,[2] […] Briefly, peptide binding to proteins was analyzed using the following carboxyfluorescein (CF) -labelled pepti des at a concentration of 10 nM: STAT1: 5-CF-GpYDKPHVL-OH, STAT3: 5-CF-GpYLPQTV -NH2, STAT4: 5-CF-GpYLPQNID-OH, STAT5a and STAT5b: 5-CF-GpYLVLDKW-OH, STAT6: 5- […]
(§5) CFGp[…]-OH. […] FP was measured using an Infinite F500 plate reader (Tecan) and measurements were converted into percent inhibition according to the binding curve equation. Curves were plotted and best fits calculated using OriginPro […]
(§6) Homogenous time-resolved fluorescence (HTRF) assays for STAT3, STAT4, STAT5a and STAT5b were carried out using Cisbio Monoclonal Antibody Anti-6His-Tb Gold as the fluorescence donor (Perkin Elmer) and the corresponding CF-labelled binding peptide as the acceptor. […] The average reading from 3 wells was obtained. […]

[2] = target: T2, STAT5a (Homo sapiens, UniProt P42229); assay: HTRF assay, STAT5a; conditions: STAT5a 110 nM, without reducing agent, 1 h
T2 sequence (P42229 1-794): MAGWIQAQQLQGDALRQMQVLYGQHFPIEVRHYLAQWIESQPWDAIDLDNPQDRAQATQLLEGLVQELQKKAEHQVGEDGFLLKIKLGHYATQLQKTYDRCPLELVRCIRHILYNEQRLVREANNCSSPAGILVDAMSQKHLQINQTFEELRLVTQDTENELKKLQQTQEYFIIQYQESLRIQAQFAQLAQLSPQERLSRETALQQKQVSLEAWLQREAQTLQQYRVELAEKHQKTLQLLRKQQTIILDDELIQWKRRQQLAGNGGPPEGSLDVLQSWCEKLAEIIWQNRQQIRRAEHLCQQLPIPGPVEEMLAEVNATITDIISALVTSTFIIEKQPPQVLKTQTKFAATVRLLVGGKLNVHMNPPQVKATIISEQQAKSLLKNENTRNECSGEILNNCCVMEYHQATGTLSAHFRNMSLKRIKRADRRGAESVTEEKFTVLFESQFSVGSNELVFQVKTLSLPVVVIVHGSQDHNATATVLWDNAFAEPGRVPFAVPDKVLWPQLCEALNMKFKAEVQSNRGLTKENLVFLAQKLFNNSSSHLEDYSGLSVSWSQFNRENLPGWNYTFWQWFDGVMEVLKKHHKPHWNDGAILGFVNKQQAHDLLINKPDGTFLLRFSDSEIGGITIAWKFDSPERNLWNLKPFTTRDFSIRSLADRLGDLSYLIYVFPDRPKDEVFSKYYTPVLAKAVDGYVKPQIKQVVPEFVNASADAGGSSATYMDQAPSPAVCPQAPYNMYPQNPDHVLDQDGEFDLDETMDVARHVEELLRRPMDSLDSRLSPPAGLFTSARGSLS
From the text: as §1, §2, §3, §4, §5, §6

[3] = target: T3, STAT5b (Homo sapiens, UniProt P51692); assay: HTRF assay, STAT5b; conditions: STAT5b 80 nM, without reducing agent, 1 h
T3 sequence (P51692 1-787): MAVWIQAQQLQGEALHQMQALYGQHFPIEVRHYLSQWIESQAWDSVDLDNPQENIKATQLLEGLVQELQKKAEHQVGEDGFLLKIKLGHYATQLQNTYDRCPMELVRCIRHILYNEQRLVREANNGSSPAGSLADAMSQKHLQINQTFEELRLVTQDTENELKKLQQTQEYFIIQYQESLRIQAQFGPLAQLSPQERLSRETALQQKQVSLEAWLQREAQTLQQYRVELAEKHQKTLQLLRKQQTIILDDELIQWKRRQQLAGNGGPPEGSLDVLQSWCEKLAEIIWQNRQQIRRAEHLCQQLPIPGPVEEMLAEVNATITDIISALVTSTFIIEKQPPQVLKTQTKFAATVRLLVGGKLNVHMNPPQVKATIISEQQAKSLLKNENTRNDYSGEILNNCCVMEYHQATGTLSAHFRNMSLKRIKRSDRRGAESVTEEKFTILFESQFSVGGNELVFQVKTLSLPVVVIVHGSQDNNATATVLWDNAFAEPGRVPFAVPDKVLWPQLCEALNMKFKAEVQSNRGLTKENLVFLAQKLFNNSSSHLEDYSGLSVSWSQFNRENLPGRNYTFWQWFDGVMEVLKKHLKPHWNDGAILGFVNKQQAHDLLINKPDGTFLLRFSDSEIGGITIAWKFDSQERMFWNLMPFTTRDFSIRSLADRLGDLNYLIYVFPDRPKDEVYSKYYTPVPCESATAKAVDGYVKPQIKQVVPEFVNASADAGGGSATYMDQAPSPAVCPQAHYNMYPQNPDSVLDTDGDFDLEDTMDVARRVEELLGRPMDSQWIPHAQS
From the text: as §1, §2, §3, §4, §5, §6

Structure (SMILES): CC[C@H](C)[C@H](NC(=O)[C@H](CC(N)=O)NC(=O)[C@H](CCC(N)=O)NC(=O)[C@@H]1CCCN1C(=O)[C@H](CC(C)C)NC(=O)[C@H](Cc1ccc(OP(=O)(O)O)cc1)NC(=O)CNC(C)=O)C(=O)N[C@@H](CC(=O)O)C(=O)O [Ac‐GpYLPQNID] (Ac-G[pY]LPQNID-OH)
- IC50 [1]: 2010 ± 80 nM

Structure (SMILES): CC(C)C[C@H](NC(=O)[C@H](Cc1c[nH]c2ccccc12)NC(=O)[C@H](CCCCN)NC(=O)[C@H](CC(=O)O)NC(=O)[C@H](CC(C)C)NC(=O)[C@@H](NC(=O)[C@H](CC(C)C)NC(=O)[C@H](Cc1ccc(OP(=O)(O)O)cc1)NC(=O)[C@@H](NC(=O)[C@@H](N)CC(=O)O)[C@@H](C)O)C(C)C)C(=O)O (H-DT[pY]LVLDKWL-OH)
- IC50 [2]: 2480 ± 270 nM
- IC50 [3]: 4180 ± 250 nM
